≈ marks a conversion by molar mass, not a printed value. Non-standard residues stand in square brackets, D forms with d. Residues, ends and D or L forms follow the SMILES beside them. *: point of attachment. Pentanoyl(5-NH-cholesteryl) = CC(C)CCC[C@@H](C)[C@H]1CC[C@H]2[C@@H]3CC=C4C[C@@H](NCCCCC(=O)*)CC[C@]4(C)[C@H]3CC[C@]12C; Cholesteryloxycarbonyl = CC(C)CCC[C@@H](C)[C@H]1CC[C@H]2[C@@H]3CC=C4C[C@@H](OC(=O)*)CC[C@]4(C)[C@H]3CC[C@]12C; PEG3 = NCCOCCOCCOCCC(=O)O; Pra = C#CC[C@H](N)C(=O)O; Aib = CC(C)(N)C(=O)O; Ahx = NCCCCCC(=O)O; βAla = NCCC(=O)O
Key:
Jurkat lymphocytes = conditions: 48 h
Description: (§1) The effects of the compounds of the invention on human Juikat leukemia cells were evaluated using flow cytometry-based assays of potency, efficacy, and toxicity. […] Analysis of flow cytometry data by non-linear regression was used to determine IC50 values for potency with the efficacy expressed as a percentage. […] Dose-dependent effects on cellular viability after 48 h at 37° C. in culture were also measured by flow cytometry.
(§2) The # represents the compound number in accordance with Tables A, B, and C. Concentrations of compound stock solutions were determined by absorbance measurements at 280 nm. Efficacy was determined as % change in cellular fluorescence relative to the maximal response of Compound 1, defined as 100%. Potencies and efficacies in Jurkat lymphocytes were measured by flow cytometry after treatment of cells with the compounds listed and the fluorescent probe Compound 2 (2.5 μM) for 14 hours. Toxicity to this cell line was determined by flow cytometry analysis of light scattering and counterstaining with PI after treatment for 48 h at 37° C. in culture. […] N.D., not determined.

[1] = Thermodynamic solubility in PBS (pH 7.4); format: physicochemical; conditions: for solubility thermodynamic at 24 h: phosphate buffered saline, pH 7.4, Table 1, read-out: Solubility (aq.)
Excerpt: Values in parentheses represent 95% confidence intervals. N.D., not determined.
Measurements represent duplicate or more replicates, with active peptides subjected to multiple replicates. ND: not determined. The peptide was non-toxic and soluble in cell culture medium at this concentration.

[2] = tested on: endosomes of Jurkat lymphocytes; test: Endosome disruption in Jurkat lymphocytes: release of carboxyfluorescein from disulfide probe Compound 2, flow cytometry; conditions: 14 h
Description: as §1, §2
Cells were treated with fluorescent molecular probe Compound 2 (2.5 μM) and endosome disruptors for 14 hours at 37° C. Enhanced cellular fluorescence resulting from release of the pH-sensitive fluorophore Compound 3 into the cytoplasm was quantified by flow cytometry.
Natural amino acids are represented by single letter codes. Codes for non-standard elements are as follows: Ch1: (3β-Cholest-5-en-3-yl-ammonio)pentanoyl; Ch2: (Cholester-3-yl)oxy-βAla-βAla; X: ε-Ahx; U: Aib; PB: Pacific Blue fluorophore. O: 3-(2-(2-(2-aminoethoxy)ethoxy)ethoxy)propanyl.

[3] = PBS pH 7.4, 24 hours at 22° C., ±S.D.

Row | Structure (SMILES) | IC50 (Jurkat lymphocytes) | Solubility (aq., μM) ([1]; Table 1, PBS pH 7.4, 24 hours at 22° C., ±S.D.) | solubility thermodynamic at 24 h [1, 3] | EC50 [2] | Difference in solubility relative to Compound 31 ([1]; PBS)
1 | C#CC[C@H](NC(=O)[C@H](CCC(=O)O)NC(=O)[C@H](CCC(=O)O)NC(=O)CCNC(=O)CCCCN[C@H]1CC[C@@]2(C)C(=CC[C@H]3[C@@H]4CC[C@H]([C@H](C)CCCC(C)C)[C@@]4(C)CC[C@@H]32)C1)C(=O)NCCOCCOCCOCCC(=O)NCCOCCOCCOCCC(=O)NC(C)(C)C(=O)NC(C)(C)C(=O)NC(C)(C)C(=O)NC(C)(C)C(=O)N[C@@H](Cc1c[nH]c2ccccc12)C(=O)N[C@@H](Cc1c[nH]c2ccccc12)C(=O)N[C@@H](C)C(=O)N[C@@H](Cc1ccc(O)cc1)C(=O)N[C@@H](Cc1c[nH]c2ccccc12)C(=O)N1CCC[C@H]1C(=O)N1CCC[C@H]1C(=O)N[C@H](C(=O)N[C@@H](C)C(N)=O)C(C)C [Compound 31, R = BEEZOOUUUUWWAYWPPVA-CONH2] ({Pentanoyl(5-NH-cholesteryl)-βAla}-EE[Pra][PEG3][PEG3][Aib][Aib][Aib][Aib]WWAYWPPVA-NH2) | 4000 nM | 5 ± 1 µM (≈ 14.1 µg/mL) | < 5 µM | 80 nM | 
2 | C#CC[C@H](NC(=O)[C@H](CCC(=O)O)NC(=O)[C@H](CCC(=O)O)NC(=O)CCNC(=O)CCNC(=O)O[C@H]1CC[C@@]2(C)C(=CC[C@H]3[C@@H]4CC[C@H]([C@H](C)CCCC(C)C)[C@@]4(C)CC[C@@H]32)C1)C(=O)NCCOCCOCCOCCC(=O)NCCOCCOCCOCCC(=O)NC(C)(C)C(=O)NC(C)(C)C(=O)NC(C)(C)C(=O)NC(C)(C)C(=O)N[C@@H](Cc1c[nH]c2ccccc12)C(=O)N[C@@H](Cc1c[nH]c2ccccc12)C(=O)N[C@@H](C)C(=O)N[C@@H](Cc1ccc(O)cc1)C(=O)N[C@@H](Cc1c[nH]c2ccccc12)C(=O)N1CCC[C@H]1C(=O)N1CCC[C@H]1C(=O)N[C@H](C(=O)N[C@@H](C)C(N)=O)C(C)C [Compound 35, R″ = BEEZOOUUUUWWAYWPPVA-CONH2] ({Cholesteryloxycarbonyl-βAla-βAla}-EE[Pra][PEG3][PEG3][Aib][Aib][Aib][Aib]WWAYWPPVA-NH2) | 13000 nM |  | 649 ± 11 µM (≈ 1840 µg/mL) | 110 nM | greater than hundredfold
3 | CC(C)CCC[C@@H](C)[C@H]1CC[C@H]2[C@@H]3CC=C4C[C@@H](NCCCCC(=O)NCCC(=O)N[C@@H](CCC(=O)O)C(=O)N[C@@H](CCC(=O)O)C(=O)NCCCCCC(=O)NC(C)(C)C(=O)NC(C)(C)C(=O)NC(C)(C)C(=O)N[C@@H](Cc5c[nH]c6ccccc56)C(=O)N[C@@H](Cc5c[nH]c6ccccc56)C(=O)N[C@@H](C)C(=O)N[C@@H](Cc5ccc(O)cc5)C(=O)N[C@@H](Cc5c[nH]c6ccccc56)C(=O)N5CCC[C@H]5C(=O)N5CCC[C@H]5C(=O)N[C@H](C(=O)N[C@@H](C)C(N)=O)C(C)C)CC[C@]4(C)[C@H]3CC[C@]12C [Compound 9, R = BEEXUUUWWAYWPPVA-CONH2] ({Pentanoyl(5-NH-cholesteryl)-βAla}-EE[Ahx][Aib][Aib][Aib]WWAYWPPVA-NH2) | 11000 nM |  | 12 ± 1 µM (≈ 28.1 µg/mL) | 400 nM | 
4 | CC(C)CCC[C@@H](C)[C@H]1CC[C@H]2[C@@H]3CC=C4C[C@@H](NCCCCC(=O)NCCC(=O)N[C@@H](CCC(=O)O)C(=O)N[C@@H](CCC(=O)O)C(=O)NCCCCCC(=O)NCCCCCC(=O)NC(C)(C)C(=O)NC(C)(C)C(=O)NC(C)(C)C(=O)NC(C)(C)C(=O)N[C@@H](Cc5c[nH]c6ccccc56)C(=O)N[C@@H](Cc5c[nH]c6ccccc56)C(=O)N[C@@H](C)C(=O)N[C@@H](Cc5ccc(O)cc5)C(=O)N[C@@H](Cc5c[nH]c6ccccc56)C(=O)N5CCC[C@H]5C(=O)N5CCC[C@H]5C(=O)N[C@H](C(=O)N[C@@H](C)C(N)=O)C(C)C)CC[C@]4(C)[C@H]3CC[C@]12C [Compound 21, R = BEEXXUUUUWWAYWPPVA-CONH2] ({Pentanoyl(5-NH-cholesteryl)-βAla}-EE[Ahx][Ahx][Aib][Aib][Aib][Aib]WWAYWPPVA-NH2) | 9000 nM |  |  | 100 nM | 
5 | CC(C)CCC[C@@H](C)[C@H]1CC[C@H]2[C@@H]3CC=C4C[C@@H](NCCCCC(=O)NCCC(=O)N[C@@H](CCC(=O)O)C(=O)N[C@@H](CCC(=O)O)C(=O)NCCCCCC(=O)NC(C)(C)C(=O)NC(C)(C)C(=O)NC(C)(C)C(=O)NC(C)(C)C(=O)N[C@@H](Cc5c[nH]c6ccccc56)C(=O)N[C@@H](Cc5c[nH]c6ccccc56)C(=O)N[C@@H](C)C(=O)N[C@@H](Cc5ccc(O)cc5)C(=O)N[C@@H](Cc5c[nH]c6ccccc56)C(=O)N5CCC[C@H]5C(=O)N5CCC[C@H]5C(=O)N[C@H](C(=O)N[C@@H](C)C(N)=O)C(C)C)CC[C@]4(C)[C@H]3CC[C@]12C [Compound 20, R = BEEXUUUUWWAYWPPVA-CONH2] ({Pentanoyl(5-NH-cholesteryl)-βAla}-EE[Ahx][Aib][Aib][Aib][Aib]WWAYWPPVA-NH2) | 15000 nM |  |  | 100 nM | 
6 | CC(C)CCC[C@@H](C)[C@H]1CC[C@H]2[C@@H]3CC=C4C[C@@H](NCCCCC(=O)NCCC(=O)N[C@@H](CCC(=O)O)C(=O)N[C@@H](CCC(=O)O)C(=O)NCCCCCC(=O)NCCCCCC(=O)NC(C)(C)C(=O)NC(C)(C)C(=O)NC(C)(C)C(=O)NC(C)(C)C(=O)N[C@@H](Cc5ccc(O)cc5)C(=O)N[C@@H](Cc5ccc(O)cc5)C(=O)N[C@@H](C)C(=O)N[C@@H](Cc5ccc(O)cc5)C(=O)N[C@@H](Cc5ccc(O)cc5)C(=O)N5CCC[C@H]5C(=O)N5CCC[C@H]5C(=O)N[C@H](C(=O)N[C@@H](C)C(N)=O)C(C)C)CC[C@]4(C)[C@H]3CC[C@]12C [Compound 23, R = BEEXXUUUUYYAYYPPVA-CONH2] ({Pentanoyl(5-NH-cholesteryl)-βAla}-EE[Ahx][Ahx][Aib][Aib][Aib][Aib]YYAYYPPVA-NH2) | 4000 nM |  |  | 100 nM | 
7 | CC(C)CCC[C@@H](C)[C@H]1CC[C@H]2[C@@H]3CC=C4C[C@@H](NCCCCC(=O)NCCC(=O)N[C@@H](CCC(=O)O)C(=O)N[C@@H](CCC(=O)O)C(=O)NCCCCCC(=O)N[C@@H](C)C(=O)N[C@@H](C)C(=O)N[C@@H](C)C(=O)N[C@@H](Cc5c[nH]c6ccccc56)C(=O)N[C@@H](Cc5c[nH]c6ccccc56)C(=O)N[C@@H](C)C(=O)N[C@@H](Cc5ccc(O)cc5)C(=O)N[C@@H](Cc5c[nH]c6ccccc56)C(=O)N5CCC[C@H]5C(=O)N5CCC[C@H]5C(=O)N[C@H](C(=O)N[C@@H](C)C(N)=O)C(C)C)CC[C@]4(C)[C@H]3CC[C@]12C [Compound 7, R = BEEXAAAWWAYWPPVA-CONH2] ({Pentanoyl(5-NH-cholesteryl)-βAla}-EE[Ahx]AAAWWAYWPPVA-NH2) | 16000 nM |  |  | 1000 nM | 
8 | CC(C)CCC[C@@H](C)[C@H]1CC[C@H]2[C@@H]3CC=C4C[C@@H](NCCCCC(=O)NCCC(=O)N[C@@H](CCC(=O)O)C(=O)N[C@@H](CCC(=O)O)C(=O)NCCOCCOCCOCCC(=O)NCCOCCOCCOCCC(=O)NC(C)(C)C(=O)NC(C)(C)C(=O)NC(C)(C)C(=O)NC(C)(C)C(=O)N[C@@H](Cc5c[nH]c6ccccc56)C(=O)N[C@@H](Cc5c[nH]c6ccccc56)C(=O)N[C@@H](C)C(=O)N[C@@H](Cc5ccc(O)cc5)C(=O)N[C@@H](Cc5c[nH]c6ccccc56)C(=O)N5CCC[C@H]5C(=O)N5CCC[C@H]5C(=O)N[C@H](C(=O)N[C@@H](C)C(=O)N[C@@H](C)C(N)=O)C(C)C)CC[C@]4(C)[C@H]3CC[C@]12C [Compound 27, R = BEEOOUUUUWWAYWPPVAA-CONH2] ({Pentanoyl(5-NH-cholesteryl)-βAla}-EE[PEG3][PEG3][Aib][Aib][Aib][Aib]WWAYWPPVAA-NH2) | 3000 nM |  |  | 200 nM | 

— patent US10766928B2, “Targeted conformationally-constrained kinked endosomal disrupting peptides” (priority 2012, dated 2020)
